From patent US20200267980A1, “Herbicidally Active Pyridyl-/Pyrimidyl-Pyrimidine Derivatives” (Syngenta Participations AG, priority 2017, published 2020)

Legend:
Format in all cases: in vivo
[1] = test system: Alopecurus myosuroides (ALOMY); experiment: Pre-emergence herbicidal activity, glasshouse pot test; parameters: key: 5=total damage to plant; 0=no damage to plant; details: 1000 g/ha, pre-emergence spray, evaluated after 13 days, damage score 0-5
Experimental: (§1) Seeds of a variety of test species were sown in standard soil in pots: Triticum aestivium (TRZAW), Avena fatua (AVEFA), Alopecurus myosuroides (ALOMY), Echinochloa crus-galli (ECHCG), Lolium perenne (LOLPE), and Setaria faberi (SETFA). After cultivation for one day (pre-emergence) under controlled conditions in a glasshouse (at 24/16° C., day/night; 14 hours light; 65% humidity), the plants were sprayed with an aqueous spray solution derived from the formulation of the technical active ingredient in acetone/water (50:50) solution containing 0.5% Tween 20 (polyoxyethelyene sorbitan monolaurate, CAS RN 9005-64-5). The test plants were then grown in a glasshouse under controlled conditions (at 24/16° C., day/night; 14 hours light; 65% humidity) and watered twice daily. After 13 days, the test was evaluated (5=total damage to plant; 0=no damage to plant).

[2] = test system: Echinochloa crus-galli (ECHCG); experiment: as above; parameters: key: 5=total damage to plant; 0=no damage to plant; details: 1000 g/ha, pre-emergence spray, evaluated after 13 days, damage score 0-5
Experimental: as §1

[3] = test system: Triticum aestivium (TRZAW); experiment: as above; parameters: key: 5=total damage to plant; 0=no damage to plant; details: 1000 g/ha, pre-emergence spray, evaluated after 13 days, damage score 0-5
Experimental: as §1

Setaria faberi (SETFA) [4] = experiment: as above; parameters: key: 5=total damage to plant; 0=no damage to plant; details: 1000 g/ha, pre-emergence spray, evaluated after 13 days, damage score 0-5
Experimental: as §1

Lolium perenne (LOLPE) [5] = experiment: as above; parameters: key: 5=total damage to plant; 0=no damage to plant; details: 1000 g/ha, pre-emergence spray, evaluated after 13 days, damage score 0-5
Experimental: as §1

Avena fatua (AVEFA) [6] = experiment: as above; parameters: key: 5=total damage to plant; 0=no damage to plant; details: 1000 g/ha, pre-emergence spray, evaluated after 13 days, damage score 0-5
Experimental: as §1

[7] = test system: Alopecurus myosuroides (ALOMY); experiment: Post-emergence herbicidal activity, glasshouse pot test; parameters: key: 5=total damage to plant; 0=no damage to plant; details: 1000 g/ha, post-emergence spray after 8 days cultivation, evaluated after 13 days, damage score 0-5
Experimental: (§2) Seeds of a variety of test species were sown in standard soil in pots: Triticum aestivium (TRZAW), Avena fatua (AVEFA), Alopecurus myosuroides (ALOMY), Echinochloa crus-galli (ECHCG), Lolium perenne (LOLPE), and Setaria faberi (SETFA). After 8 days cultivation (post-emergence) under controlled conditions in a glasshouse (at 24/16° C., day/night; 14 hours light; 65% humidity), the plants were sprayed with an aqueous spray solution derived from the formulation of the technical active ingredient in acetone/water (50:50) solution containing 0.5% Tween 20 (polyoxyethelyene sorbitan monolaurate, CAS RN 9005-64-5). The test plants were then grown in a glasshouse under controlled conditions (at 24/16° C., day/night; 14 hours light; 65% humidity) and watered twice daily. After 13 days, the test was evaluated (5=total damage to plant; 0=no damage to plant).

[8] = test system: Echinochloa crus-galli (ECHCG); experiment: as above; parameters: key: 5=total damage to plant; 0=no damage to plant; details: 1000 g/ha, post-emergence spray after 8 days cultivation, evaluated after 13 days, damage score 0-5
Experimental: as §2

[9] = test system: Triticum aestivium (TRZAW); experiment: as above; parameters: key: 5=total damage to plant; 0=no damage to plant; details: 1000 g/ha, post-emergence spray after 8 days cultivation, evaluated after 13 days, damage score 0-5
Experimental: as §2

Setaria faberi (SETFA) [10] = experiment: as above; parameters: key: 5=total damage to plant; 0=no damage to plant; details: 1000 g/ha, post-emergence spray after 8 days cultivation, evaluated after 13 days, damage score 0-5
Experimental: as §2

Lolium perenne (LOLPE) [11] = experiment: as above; parameters: key: 5=total damage to plant; 0=no damage to plant; details: 1000 g/ha, post-emergence spray after 8 days cultivation, evaluated after 13 days, damage score 0-5
Experimental: as §2

Avena fatua (AVEFA) [12] = experiment: as above; details: 1000 g/ha, post-emergence spray after 8 days cultivation, evaluated after 13 days, damage score 0-5
Experimental: as §2

CCCC(=O)Nc1cnc(-c2cncc(F)c2)nc1C(F)(F)F [Compound F33]
Control of weed species after pre-emergence application, ALOMY [1]: 0
Control of weed species after pre-emergence application, ECHCG [2]: 4
Control of weed species after pre-emergence application, TRAZW [3]: 1
Control of weed species after pre-emergence application, SETFA (Setaria faberi (SETFA) [4]): 4
Control of weed species after pre-emergence application, LOLPE (Lolium perenne (LOLPE) [5]): 0
Control of weed species after pre-emergence application, AVEFA (Avena fatua (AVEFA) [6]): 1
Control of weed species after post-emergence application, ALOMY [7]: 1
Control of weed species after post-emergence application, ECHCG [8]: 4
Control of weed species after post-emergence application, TRAZW [9]: 1
Control of weed species after post-emergence application, SETFA (Setaria faberi (SETFA) [10]): 5
Control of weed species after post-emergence application, LOLPE (Lolium perenne (LOLPE) [11]): 2
Control of weed species after post-emergence application, AVEFA (Avena fatua (AVEFA) [12]): 3

CC(C)C(=O)N(C)c1cnc(-c2cncc(F)c2)nc1C(F)(F)F [Compound F20, N-[2-(5-fluoro-3-pyridyl)-4-(trifluoromethyl)pyrimidin-5-yl]-N,2-dimethyl-propanamide]
Control of weed species after pre-emergence application, ALOMY [1]: 0
Control of weed species after pre-emergence application, ECHCG [2]: 4
Control of weed species after pre-emergence application, TRAZW [3]: 1
Control of weed species after pre-emergence application, SETFA (Setaria faberi (SETFA) [4]): 5
Control of weed species after pre-emergence application, LOLPE (Lolium perenne (LOLPE) [5]): 1
Control of weed species after pre-emergence application, AVEFA (Avena fatua (AVEFA) [6]): 3
Control of weed species after post-emergence application, ALOMY [7]: 1
Control of weed species after post-emergence application, ECHCG [8]: 5
Control of weed species after post-emergence application, TRAZW [9]: 2
Control of weed species after post-emergence application, SETFA (Setaria faberi (SETFA) [10]): 5
Control of weed species after post-emergence application, LOLPE (Lolium perenne (LOLPE) [11]): 3
Control of weed species after post-emergence application, AVEFA (Avena fatua (AVEFA) [12]): 4

O=C1CCCCN1c1cnc(-c2cncc(F)c2)nc1C(F)(F)F [Compound F29]
Control of weed species after pre-emergence application, ALOMY [1]: 1
Control of weed species after pre-emergence application, ECHCG [2]: 2
Control of weed species after pre-emergence application, TRAZW [3]: 1
Control of weed species after pre-emergence application, SETFA (Setaria faberi (SETFA) [4]): 3
Control of weed species after pre-emergence application, LOLPE (Lolium perenne (LOLPE) [5]): 1
Control of weed species after pre-emergence application, AVEFA (Avena fatua (AVEFA) [6]): 0
Control of weed species after post-emergence application, ALOMY [7]: 0
Control of weed species after post-emergence application, ECHCG [8]: 4
Control of weed species after post-emergence application, TRAZW [9]: 0
Control of weed species after post-emergence application, SETFA (Setaria faberi (SETFA) [10]): 5
Control of weed species after post-emergence application, LOLPE (Lolium perenne (LOLPE) [11]): 1
Control of weed species after post-emergence application, AVEFA (Avena fatua (AVEFA) [12]): 3

CC(C)=CC(=O)Nc1cnc(-c2cncc(F)c2)nc1C(F)(F)F [Compound F24]
Control of weed species after pre-emergence application, ALOMY [1]: 0
Control of weed species after pre-emergence application, ECHCG [2]: 2
Control of weed species after pre-emergence application, TRAZW [3]: 1
Control of weed species after pre-emergence application, SETFA (Setaria faberi (SETFA) [4]): 5
Control of weed species after pre-emergence application, LOLPE (Lolium perenne (LOLPE) [5]): 1
Control of weed species after pre-emergence application, AVEFA (Avena fatua (AVEFA) [6]): 1
Control of weed species after post-emergence application, ALOMY [7]: 1
Control of weed species after post-emergence application, ECHCG [8]: 5
Control of weed species after post-emergence application, TRAZW [9]: 1
Control of weed species after post-emergence application, SETFA (Setaria faberi (SETFA) [10]): 4
Control of weed species after post-emergence application, LOLPE (Lolium perenne (LOLPE) [11]): 1
Control of weed species after post-emergence application, AVEFA (Avena fatua (AVEFA) [12]): 3

Cc1ccc(C(=O)Nc2cnc(-c3cncc(F)c3)nc2C(F)(F)F)cc1 [Compound F25]
Control of weed species after pre-emergence application, ALOMY [1]: 0
Control of weed species after pre-emergence application, ECHCG [2]: 3
Control of weed species after pre-emergence application, TRAZW [3]: 0
Control of weed species after pre-emergence application, SETFA (Setaria faberi (SETFA) [4]): 4
Control of weed species after pre-emergence application, LOLPE (Lolium perenne (LOLPE) [5]): 0
Control of weed species after pre-emergence application, AVEFA (Avena fatua (AVEFA) [6]): 0
Control of weed species after post-emergence application, ALOMY [7]: 0
Control of weed species after post-emergence application, ECHCG [8]: 5
Control of weed species after post-emergence application, TRAZW [9]: 0
Control of weed species after post-emergence application, SETFA (Setaria faberi (SETFA) [10]): 4
Control of weed species after post-emergence application, LOLPE (Lolium perenne (LOLPE) [11]): 1
Control of weed species after post-emergence application, AVEFA (Avena fatua (AVEFA) [12]): 2

N#CCN(C(=O)C1CC1)c1cnc(-c2cncc(F)c2)nc1C(F)(F)F [Compound F30]
Control of weed species after pre-emergence application, ALOMY [1]: 0
Control of weed species after pre-emergence application, ECHCG [2]: 3
Control of weed species after pre-emergence application, TRAZW [3]: 1
Control of weed species after pre-emergence application, SETFA (Setaria faberi (SETFA) [4]): 4
Control of weed species after pre-emergence application, LOLPE (Lolium perenne (LOLPE) [5]): 2
Control of weed species after pre-emergence application, AVEFA (Avena fatua (AVEFA) [6]): 2
Control of weed species after post-emergence application, ALOMY [7]: 1
Control of weed species after post-emergence application, ECHCG [8]: 4
Control of weed species after post-emergence application, TRAZW [9]: 1
Control of weed species after post-emergence application, SETFA (Setaria faberi (SETFA) [10]): 5
Control of weed species after post-emergence application, LOLPE (Lolium perenne (LOLPE) [11]): 2
Control of weed species after post-emergence application, AVEFA (Avena fatua (AVEFA) [12]): 2

O=C(Nc1cnc(-c2cncc(F)c2)nc1C(F)(F)F)C1CCC1 [Compound F26]
Control of weed species after pre-emergence application, ALOMY [1]: 0
Control of weed species after pre-emergence application, ECHCG [2]: 3
Control of weed species after pre-emergence application, TRAZW [3]: 1
Control of weed species after pre-emergence application, SETFA (Setaria faberi (SETFA) [4]): 4
Control of weed species after pre-emergence application, LOLPE (Lolium perenne (LOLPE) [5]): 0
Control of weed species after pre-emergence application, AVEFA (Avena fatua (AVEFA) [6]): 1
Control of weed species after post-emergence application, ALOMY [7]: 1
Control of weed species after post-emergence application, ECHCG [8]: 5
Control of weed species after post-emergence application, TRAZW [9]: 1
Control of weed species after post-emergence application, SETFA (Setaria faberi (SETFA) [10]): 5
Control of weed species after post-emergence application, LOLPE (Lolium perenne (LOLPE) [11]): 2
Control of weed species after post-emergence application, AVEFA (Avena fatua (AVEFA) [12]): 4

O=C(C1CC1)N(C(=O)C1CC1)c1cnc(-c2cncc(F)c2)nc1C(F)(F)F [Compound F21]
Control of weed species after pre-emergence application, ALOMY [1]: 0
Control of weed species after pre-emergence application, ECHCG [2]: 1
Control of weed species after pre-emergence application, TRAZW [3]: 0
Control of weed species after pre-emergence application, SETFA (Setaria faberi (SETFA) [4]): 4
Control of weed species after pre-emergence application, LOLPE (Lolium perenne (LOLPE) [5]): 0
Control of weed species after pre-emergence application, AVEFA (Avena fatua (AVEFA) [6]): 0
Control of weed species after post-emergence application, ALOMY [7]: 1
Control of weed species after post-emergence application, ECHCG [8]: 3
Control of weed species after post-emergence application, TRAZW [9]: 1
Control of weed species after post-emergence application, SETFA (Setaria faberi (SETFA) [10]): 5
Control of weed species after post-emergence application, LOLPE (Lolium perenne (LOLPE) [11]): 2
Control of weed species after post-emergence application, AVEFA (Avena fatua (AVEFA) [12]): 3

O=C(CCC1CCCC1)Nc1cnc(-c2cncc(F)c2)nc1C(F)(F)F [Compound F19]
Control of weed species after pre-emergence application, ALOMY [1]: 0
Control of weed species after pre-emergence application, ECHCG [2]: 4
Control of weed species after pre-emergence application, TRAZW [3]: 1
Control of weed species after pre-emergence application, SETFA (Setaria faberi (SETFA) [4]): 4
Control of weed species after pre-emergence application, LOLPE (Lolium perenne (LOLPE) [5]): 1
Control of weed species after pre-emergence application, AVEFA (Avena fatua (AVEFA) [6]): 1
Control of weed species after post-emergence application, ALOMY [7]: 0
Control of weed species after post-emergence application, ECHCG [8]: 4
Control of weed species after post-emergence application, TRAZW [9]: 0
Control of weed species after post-emergence application, SETFA (Setaria faberi (SETFA) [10]): 4
Control of weed species after post-emergence application, LOLPE (Lolium perenne (LOLPE) [11]): 1
Control of weed species after post-emergence application, AVEFA (Avena fatua (AVEFA) [12]): 2
